# Literature values, collected in US20100055163A1, “FORMULATION OF NATURAL T[…] […] FROM THE GENUS OLEA IN LIPOSOMES” (UNIVERSIDAD DE GRANADA, priority 2006, published 2010).
# Assays:
# [1] = tested on: rainbow trout; details: added to feed
# [2] = tested on: parasites of the genus Cryptosporidium; design: dose or concentration left out as unconfirmed; details: MDCK cell lines
# [3] = tested on: membrane hepatocyte lipid peroxidation (LPO); details: rats
# [4] = molecular target: HIV-1 protease (Human immunodeficiency virus type 1 group M subtype B, UniProt P04585)
# [5] = tested on: acquired immunodeficiency virus; details: acts intracellularly
smiles,measurement,setting,value
"CC1(C)CC[C@]2(C(=O)O)CC[C@]3(C)C(=CC[C@@H]4[C@@]5(C)C[C@@H](O)[C@H](O)C(C)(C)[C@@H]5CC[C@]43C)[C@@H]2C1 [maslinic acid, 2-alpha, 3-beta-dihydroxy-28-carboxy-oleanene]",hepatic organ and function,[1],significant improvement of the hepatic organ and function
same,infection inhibition percentage,[2],92.3%
same,lipoperoxide levels and membrane hepatocyte susceptibility to lipid peroxidation (LPO),[3],reduces lipoperoxide levels and membrane hepatocyte susceptibility to lipid peroxidation (LPO)
same,inhibiting activity in vitro of HIV-1 protease,[4],powerful inhibiting activity
same,exit of the virus from the infected cell towards the medium,[5],considerably inhibits
